Laboratory results taken from ChEMBL document CHEMBL1137192, “Synthesis and neurotrophic activity of nonimmunosuppressant cyclosporin A derivatives” (Bioorg Med Chem Lett, 2004).
pEC50, pKi: −log10 of the molar value.

Tests used:
T-cell = assay: Inhibition of T-cell proliferation; type: functional; conditions: read-out: ED50 (the source's name)
[1] = target: Peptidyl-prolyl cis-trans isomerase A (Homo sapiens, UniProt P62937); assay: Inhibition of cyclophilin A rotamase
Sequence of Peptidyl-prolyl cis-trans isomerase A (P62937 whole entry): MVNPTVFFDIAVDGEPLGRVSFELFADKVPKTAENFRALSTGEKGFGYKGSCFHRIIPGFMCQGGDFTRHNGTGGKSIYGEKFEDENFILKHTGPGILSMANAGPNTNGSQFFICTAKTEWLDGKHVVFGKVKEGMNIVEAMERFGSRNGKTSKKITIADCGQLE

| pKi [1] | SMILES | pEC50 (T-cell) |
| --- | --- | --- |
|  | C=C1NC(=O)[C@H](C)NC(=O)[C@H](CC(C)C)N(C)C(=O)[C@H](C(C)C)NC(=O)[C@H](CC(C)C)N(C)C(=O)CN(C)C(=O)[C@H](CC)NC(=O)[C@H]([C@H](O)[C@H](C)C/C=C/C)N(C)C(=O)[C@H](C(C)C)N(C)C(=O)[C@H](CC(C)C)N(C)C(=O)[C@H](CC(C)C)N(C)C1=O | < 5.00 |
|  | C/C=C/C[C@@H](C)[C@@H](O)[C@H]1C(=O)N[C@@H](CC)C(=O)N(C)CC(=O)N(C)[C@@H](CC)C(=O)N[C@@H](C(C)C)C(=O)N(C)[C@@H](CC(C)C)C(=O)N[C@@H](C)C(=O)N[C@H](C)C(=O)N(C)[C@@H](CC(C)C)C(=O)N(C)[C@@H](CC(C)C)C(=O)N(C)[C@@H](C(C)C)C(=O)N1C | < 5.00 |
|  | CCCC[C@@H](C)[C@@H](O)[C@H]1C(=O)N[C@@H](CC)C(=O)N(C)CC(=O)N(C)[C@@H](CC(C)C)C(=O)N[C@@H](C(C)C)C(=O)N(C)[C@@H](CC(C)C)C(=O)N[C@@H](C)C(=O)N[C@H](C)C(=O)N(C)[C@@H](CC(C)C)C(=O)N(C)[C@@H](CC(C)C)C(=O)N(C)[C@@H](C(C)C)C(=O)N1C | 6.89 |
| 7.74 | C/C=C/C[C@@H](C)C(O)[C@H]1C(=O)N[C@@H](CC)C(=O)N(C)CC(=O)N(C)[C@H](CC(C)C)C(=O)N[C@](C)(C(C)O)C(=O)N(C)[C@@H](CC(C)C)C(=O)N[C@@H](C)C(=O)N[C@H](C)C(=O)N(C)[C@H](CC(C)C)C(=O)N(C)[C@@H](CC(C)C)C(=O)N(C)[C@@H](C(C)C)C(=O)N1C (stereo not given in full) | < 5.00 |
